Measurements: patent publication US11857535B2, “Methods of treating mutant lymphomas” (Kymera Therapeutics, Inc., priority 2020, dated 2024)
Like-named read-outs stand apart in the source and are kept apart here.

Experiments:
[1] = 7.2 Pharmacokinetic and tolerability characterization, intravenous bolus, cynomolgus monkeys; conditions: cynomolgus monkey, in vivo, IV dosing in NHP
Excerpt: 7.2 Pharmacokinetic and Tolerability Characterization following Intravenous Bolus Administration to Male and Female Cynomolgus Monkeys
The objective of this study is to determine the pharmacokinetics and tolerability of Compound A following intravenous bolus administrations of Compound A on a single day or two consecutive days in male and female cynomolgus monkeys. The test article will be measured in plasma at selected time points for up to 14 days post dosing.
Purpose: To prepare a 20 mgA/mL solution of 20%:80% Compound A:HPBCD SDD in an aqueous vehicle comprised of 5 wt % TPGS in 0.1 M Acetate suitable for IV dosing in NHP. […]
Bioanalytical method development and sample analysis • LC-MS/MS method development: • 1. A LC-MS/MS method for the quantitative determination of test compound in biological matrix will be developed under non-GLP compliance. • 2. […] N in 1 cassette LC-MS/MS method can be developed for samples coming from different studies as long as these studies belong to same sponsor and the interference among all cassette analytes will be evaluated during the method development. • 5. […] If such kind cassette assay is still requested by the study sponsor, interference between analytes will not be evaluated but the LC separation of those analytes by using a generic method will be tried. […]

[2] = Compound exposure (PK) in plasma, spleen and tumor of OCI-Ly10 xenograph mice; type: in vivo, mouse
Experimental: At termination: At pre-determined time points based on study design, animals were humanely sacrificed by CO2. Blood was obtained by cardiac puncture for isolation of plasma, any residual tumor was removed and divided in 2 portions, 1 (minimal) for terminal compound exposure and 1 to determine IRAK4 and actin. Compound was determined in tumor and plasma using LC/MS with calibrated standards.

[3] = C.B. 17 SCID, mouse, plasma, 10 mg/kg, 10 mpk PO

## CC(C)(O)c1cc2nc([C@H]3CC[C@H](CN4CC5(CC(CCNc6cccc7c6C(=O)N(C6CCC(=O)NC6=O)C7=O)C5)C4)CC3)sc2cc1NC(=O)c1cccc(C(F)(F)F)n1 (stereo partly shown) [Compound A, N-(2-((1r,4r)-4-((6-(2-((2-(2,6-dioxopiperidin-3-yl)-1,3-dioxoisoindolin-4-yl)amino)ethyl)-2-azaspiro[3.3]heptan-2-yl)methyl)cyclohexyl)-5-(2-hydroxypropan-2-yl)benzo[d]thiazol-6-yl)-6-(trifluoromethyl)picolinamide]
[1]; schedule D1, 2, read-out: Target exposure Range (Ly10-DHL2) AUC0-168
  target exposure range AUC0-168: 12 to 36 µM·h
[1]; schedule D1, read-out: Target exposure Range (Ly10-DHL2) AUC0-168
  target exposure range AUC0-168: 24 to 72 µM·h
[2]; 10 mpk PO
  F: 19.0%
[2]; [3]
  AUC(0-t): 2.83 µM·h
  Cmax: 180 nM
  Tmax: 8 h
  half-life: 561 min
[2]; C.B. 17 SCID, mouse, plasma, 3 mpk, after 5d dosing, read-out: Plasma C24 h
  concentration at 24 h: 10 nM
[2]; C.B. 17 SCID, mouse, plasma, 10 mpk PO, read-out: C24 h
  concentration at 24 h: 55 nM
[2]; C.B. 17 SCID, mouse, plasma, 10 mpk, after 5d dosing, read-out: Plasma C24 h
  concentration at 24 h: 80 nM
[2]; C.B. 17 SCID, mouse, plasma, 30 mpk, after 5d dosing, read-out: Plasma C24 h
  concentration at 24 h: 640 nM
[2]; C.B. 17 SCID, mouse, plasma, based on either a 3 mpk or 10 mpk dose, read-out: Target exposure for efficacy in OCI-Ly10: steady state C24h
  concentration at 24 h: 10 to 80 nM
[2]; C.B. 17 SCID, mouse, spleen, 3 mpk, after 5d dosing, read-out: Spleen C24 h
  concentration at 24 h: 500 nM
[2]; C.B. 17 SCID, mouse, spleen, 10 mpk, after 5d dosing, read-out: Spleen C24 h
  concentration at 24 h: 4100 nM
[2]; C.B. 17 SCID, mouse, spleen, 30 mpk, after 5d dosing, read-out: Spleen C24 h
  concentration at 24 h: 59000 nM
[2]; C.B. 17 SCID, mouse, tumor, 3 mpk, after 5d dosing, read-out: Tumor C24 h
  concentration at 24 h: 430 nM
[2]; C.B. 17 SCID, mouse, tumor, 10 mpk, after 5d dosing, read-out: Tumor C24 h
  concentration at 24 h: 4200 nM
[2]; C.B. 17 SCID, mouse, tumor, 30 mpk, after 5d dosing, read-out: Tumor C24 h
  concentration at 24 h: 64000 nM
[2]; single dose, FIG. 4
  tissue exposure relative to plasma: high tissue exposure relative to plasma
